In patent publication US20090169526A1, “BMP-6 ESTROGEN RESPONSIVE ELEMENT AND METHODS OF USE THEREOF” (Wyeth, priority 2004, published 2009):
Entries after “also recorded” stand apart in the source; their conditions may differ. *1 amine or outer side, *2 acyl side, *3 side chain or, on linkers, in order; H or OH if unused. Where a SMILES comes first, the peptide text is derived from it. Bridges are numbered along the chain shown (N, C = ends). Roman numbers before positions name the chains, in order. [ ]: non-standard residue; d: D form. Actinocin(9to1) = Cc1c2oc3c(C)ccc(C(=O)[*:1])c3nc-2c(C(=O)[*:2])c(N)c1=O; NMeV = CN[C@H](C(=O)O)C(C)C; Sar = CNCC(=O)O

What was measured:
hBMP-6 mRNA [1] = assay: Real-time PCR of hBMP-6 mRNA with or without Actinomycin D; format: cell-based, human; details: for hBMP-6 mRNA expression: treated with E2, p<0.05
Source text: In order to determine whether estrogen regulates hBMP-6 at the level of transcription, we conducted Real-time PCR assays measuring hBMP-6 mRNA expression in cells pulse-chase treated with or without Actinomycin D, which inhibits […] (FIG. 8).

ERβ [2] = biological target: T1, ERβ (Homo sapiens, UniProt Q92731); assay: ERE-tk-luciferase reporter in hMSCs infected with adeno-ERβ; format: cell-based; set-up: expressed in transfected cells; host or cells: human mesenchymal stem cells (hMSCs), adenoviral transduction with Ad5-CMV-ERβ (long form; gift of Women Health Institute, Wyeth); details: hMSCs infected with adeno-ERE-tk-luc, adeno-ERβ and adeno-LacZ; 10^−8 M E2, 24 hours; over vehicle control
hBMP-6 promoter = assay: hBMP-6 promoter-Luc reporter in C3H10T1/2 cells; format: cell-based, mouse; details: 10^−8 M E2, 24 hours
hBMP-6 mRNA [3] = assay: RT-PCR of hBMP-6 mRNA in engineered hMSCs (qualitative); format: cell-based, human; details: E2 10^−7 M, 24 hours
Description: H MSCs were infected with 100 pfu/cell adeno-LacZ, adeno-ER-α or adeno-ER-β.
RNA was isolated utilizing the TRIzol Reagent (Life Technologies, USA), according to manufacturer's protocol. RT-PCR was performed as described previously (Zhou et al., 2001). Forward and reverse primers for human ERα were: 5′-[…]-3′ (SEQ ID NO:6) and 5′-[…]-3′ (SEQ ID NO:7), respectively, and were designed according to the human ERα sequence (Green et al., 1986). Forward and reverse primers for human ERβ were: 5′-[…]-3′ (SEQ ID NO:8), and 5′-[…]-3′ (SEQ ID NO:9), respectively, designed according to human ERβ sequence (Moore et al., 1998). Primers for the hBMP-6 (458 bp) (Rickard et al., 1998), and internal control RPL19 (190 bp) (Orly et al., 1994) sequences were as described previously.
PCR conditions used for hERα and hERβ amplification were as follows: 30 cycles at 94° C. for 1 minute, 60° C. for 1 minute and 72° C. for 2 minute. Conditions used for hBMP-6 reverse transcription and PCR amplification were: incubation with RT, followed by 30 cycles of 94° C. for 1 minute, 55° C. for 1 minute and 72° C. for 2 minute in an MJ MiniCycler (MJ Research, USA). RT-PCR products of hBMP-6 were cloned into pGEM-T Easy vector (A1360, Promega), which following sequencing confirmed that the RT-PCR product was the hBMP-6 sequence.

ERβ [4] = biological target: T1, ERβ; assay: ERE-tk-Luc reporter in C3H10T1/2 cells co-transfected with ERβ; format: cell-based; set-up: expressed in transfected cells; details: mouse C3H10T1/2 cells co-transfected with ERβ; 10^−8 M E2, 24 hours
estrogen receptors (Ers) = details: hMSCs with ERE-tk-luciferase construct and adeno-lacZ construct; five donors
Description: (§1) hMSCs were infected in vitro at 80% confluence with Ad5-CMV-ERα, Ad5-CMV-ERβ and Ad5-CMV-LacZ at 100 pfu/cell, for 1 hour in serum-free DMEM after which DMEM supplemented with 10% FCS was added, as previously described (Bodine et al., 1997 and 1999). Efficiency of infection was estimated via β-gal activity determination, utilizing the Galacto-Light Chemiluminescent Reporter Assay System Kit (Tropix of PE Biosystems, USA). […] Five experiments, each in triplicate were conducted, standard error is represented.

hBMP-6 mRNA [5] = assay: Real Time RT-PCR of hBMP-6 mRNA in engineered hMSCs; format: cell-based, human; details: 10^−7 M E2, 24 hours
Description: as §1

T1 sequence (Q92731 whole entry): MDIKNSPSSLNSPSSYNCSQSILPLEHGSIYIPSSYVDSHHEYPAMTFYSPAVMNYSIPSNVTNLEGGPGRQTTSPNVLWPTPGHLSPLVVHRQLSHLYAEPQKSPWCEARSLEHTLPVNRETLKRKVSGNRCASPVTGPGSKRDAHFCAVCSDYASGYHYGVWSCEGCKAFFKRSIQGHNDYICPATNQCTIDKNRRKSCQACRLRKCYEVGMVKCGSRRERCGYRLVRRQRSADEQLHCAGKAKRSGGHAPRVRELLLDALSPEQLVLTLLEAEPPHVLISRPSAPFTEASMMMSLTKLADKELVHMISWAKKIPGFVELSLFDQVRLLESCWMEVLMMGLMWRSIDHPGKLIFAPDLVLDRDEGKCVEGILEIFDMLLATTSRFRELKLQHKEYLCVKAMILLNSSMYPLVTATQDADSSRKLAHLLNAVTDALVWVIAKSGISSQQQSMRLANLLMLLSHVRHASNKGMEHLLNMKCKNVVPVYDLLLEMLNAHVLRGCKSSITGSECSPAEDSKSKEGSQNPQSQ

Row | increase in luciferase activity (ERβ [2]) [fold] | ERE-tk-Luc luminescence (ERβ [4]) | luciferase activity following E2 treatment (estrogen receptors (Ers)) | Compound | effect of Actinomycin D on up-regulation of hBMP-6 mRNA by E2 (hBMP-6 mRNA [1]; hMSCs engineered with ERα or ERβ, pulse-chase treated) | hBMP-6 mRNA expression (hBMP-6 mRNA [1]; cells transfected with ERα) | hBMP-6 mRNA expression (hBMP-6 mRNA [1]; cells transfected with ERβ) | hBMP-6 promoter-Luc luminescence (hBMP-6 promoter; mouse C3H10T1/2 cells co-transfected with ERα) | hBMP-6 promoter-Luc luminescence (hBMP-6 promoter; mouse C3H10T1/2 cells co-transfected with ERβ) | hBMP-6 mRNA detection by RT-PCR (hBMP-6 mRNA [3]; hMSCs transduced with adeno-ERα 100 pfu/cell) | hBMP-6 mRNA detection by RT-PCR (hBMP-6 mRNA [3]; hMSCs transduced with adeno-ERβ 100 pfu/cell) | hBMP-6 mRNA detection by RT-PCR (hBMP-6 mRNA [3]; hMSCs transduced with adeno-LacZ 100 pfu/cell) | increase in hBMP-6 mRNA expression (hBMP-6 mRNA [5]; hMSCs infected with Adeno-ERα 100 pfu/cell) [fold] | increase in hBMP-6 mRNA expression (hBMP-6 mRNA [5]; hMSCs infected with Adeno-ERβ 100 pfu/cell) [fold] | stimulation of hBMP-6 mRNA expression (hBMP-6 mRNA [5]; hMSCs infected with Adeno-LacZ)
1 | – | – | – | Cc1c2oc3c(C)ccc(C(=O)N[C@@H]4C(=O)N[C@H](C(C)C)C(=O)N5CCC[C@H]5C(=O)N(C)CC(=O)N(C)[C@@H](C(C)C)C(=O)O[C@@H]4C)c3nc-2c(C(=O)N[C@@H]2C(=O)N[C@H](C(C)C)C(=O)N3CCC[C@H]3C(=O)N(C)CC(=O)N(C)[C@@H](C(C)C)C(=O)O[C@@H]2C)c(N)c1=O [Actinomycin D] (I: T[dV]P[Sar][NMeV] / II: T[dV]P[Sar][NMeV]; ester I:1-I:C, II:1-II:C; linker I:N-II:N via Actinocin(9to1)) | no statistical difference; also recorded: does not block | – | – | – | – | – | – | – | – | – | –
2 | 6 | significant luminescence | failed to produce luciferase activity | C[C@]12CC[C@@H]3c4ccc(O)cc4CC[C@H]3[C@@H]1CC[C@@H]2O [E2, 17β-estradiol] | – | significantly increased | significantly increased | did not result in enhanced luminescence over background levels | did not result in enhanced luminescence over background levels | qualitatively detectable levels | qualitatively detectable levels | did not | 3.2 | 2.0 | not
